Six compounds from BindingDB's records for doi:10.1016/S1074-5521(99)80072-6 (Ligand Pharmaceuticals Inc, 1999) can be followed below.

The Ki is the equilibrium dissociation constant of an inhibitor or competing ligand from its target. Low values mean a stronger hold on the target, high ones a looser hold on the target. One may read the IC50 as the midpoint of a concentration-inhibition curve. Low values mean inhibition by little substance, high ones a need for much substance.

One test has as its target T1, Vitamin D3 receptor (Homo sapiens, UniProt P11473).
T1 sequence (P11473 whole entry): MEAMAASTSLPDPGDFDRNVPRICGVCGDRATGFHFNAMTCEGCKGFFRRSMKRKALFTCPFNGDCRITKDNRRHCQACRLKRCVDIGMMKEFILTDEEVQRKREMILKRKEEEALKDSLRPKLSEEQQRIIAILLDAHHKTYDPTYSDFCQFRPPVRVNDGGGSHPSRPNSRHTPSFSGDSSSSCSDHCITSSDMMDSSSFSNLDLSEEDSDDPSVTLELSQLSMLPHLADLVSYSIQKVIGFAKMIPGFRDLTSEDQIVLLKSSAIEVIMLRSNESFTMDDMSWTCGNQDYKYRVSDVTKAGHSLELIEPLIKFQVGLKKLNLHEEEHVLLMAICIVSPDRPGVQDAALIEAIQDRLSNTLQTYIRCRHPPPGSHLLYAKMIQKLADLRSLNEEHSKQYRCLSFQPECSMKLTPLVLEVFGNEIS
The test is described as follows: VDR Ligand-Binding Assay. As to conditions: pH 7.5; 4 °C. From the text: VDR in vitro ligand-binding assay using human VDR constructed into a yeast expression plasmid.

Test [1] deals with T2, Vitamin D-binding protein (Homo sapiens, UniProt V9HWI6).
T2 sequence (V9HWI6 whole entry): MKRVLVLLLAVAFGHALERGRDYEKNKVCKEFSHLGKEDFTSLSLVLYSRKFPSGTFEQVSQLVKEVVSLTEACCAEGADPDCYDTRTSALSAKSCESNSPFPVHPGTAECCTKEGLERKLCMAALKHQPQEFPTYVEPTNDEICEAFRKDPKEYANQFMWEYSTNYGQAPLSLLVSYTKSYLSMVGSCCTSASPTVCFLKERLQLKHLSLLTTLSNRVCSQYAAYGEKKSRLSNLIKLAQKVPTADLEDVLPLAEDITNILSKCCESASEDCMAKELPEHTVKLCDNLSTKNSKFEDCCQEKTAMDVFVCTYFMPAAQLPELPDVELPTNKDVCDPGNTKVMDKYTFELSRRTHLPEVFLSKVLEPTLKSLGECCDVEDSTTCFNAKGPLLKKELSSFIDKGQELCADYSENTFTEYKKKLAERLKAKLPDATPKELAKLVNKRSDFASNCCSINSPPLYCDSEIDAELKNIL
The test is described as follows: DBP Binding Assay. As to conditions: pH 7.4; 4 °C. The source says:
(§1) DBP competition binding assay were done using human serum (Scantibodies) or rat serum (Gibco-BRL).

Test [2] addresses T3, Vitamin D-binding protein (Rattus norvegicus, UniProt P04276).
T3 sequence (P04276 whole entry): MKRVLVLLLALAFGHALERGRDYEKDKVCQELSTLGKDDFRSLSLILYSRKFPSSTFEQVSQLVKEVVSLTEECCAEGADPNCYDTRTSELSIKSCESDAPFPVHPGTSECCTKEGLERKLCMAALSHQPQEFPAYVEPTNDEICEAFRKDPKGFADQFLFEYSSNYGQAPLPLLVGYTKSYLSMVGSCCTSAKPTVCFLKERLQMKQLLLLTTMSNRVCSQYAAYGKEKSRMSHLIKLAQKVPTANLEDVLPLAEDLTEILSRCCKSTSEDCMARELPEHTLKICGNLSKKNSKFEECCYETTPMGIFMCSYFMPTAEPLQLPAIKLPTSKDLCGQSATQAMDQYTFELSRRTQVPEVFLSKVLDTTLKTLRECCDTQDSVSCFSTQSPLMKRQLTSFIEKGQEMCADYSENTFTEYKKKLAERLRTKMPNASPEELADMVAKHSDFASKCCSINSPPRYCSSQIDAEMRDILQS
The test is described as follows: DBP Binding Assay. Conditions: pH 7.4; 4 °C.
From the text: as §1

As for `CCC(CC)(c1ccc(OCC(=O)C(C)(C)C)c(C)c1)c1ccc(OCC(=O)C(C)(C)C)c(C)c1` [LG190155], at Vitamin D3 receptor, the Ki is greater than 1 µM. This compound came in with an IC50 in test [1] greater than 1 µM.

With `CCC(CC)(c1ccc(OCC(=O)C(C)(C)C)c(C)c1)c1ccc(OCC2CO2)c(C)c1` (configuration not stated) [LG190176], at Vitamin D3 receptor, the Ki was greater than 1 µM. The IC50 in test [1] was greater than 1 µM.

`Cc1cc(C2(c3ccc(OCC(=O)C(C)(C)C)c(C)c3)CCCCC2)ccc1OCC(=O)C(C)(C)C` [LG190119] came in with a Ki at Vitamin D3 receptor greater than 1 µM. The compound also displayed an IC50 in test [1] greater than 1 µM.

In test [1], `CCC(CC)(c1ccc(OCC(=O)C(C)(C)C)c(C)c1)c1ccc(OCC(O)CO)c(C)c1` (configuration not stated) [LG190178] gave an IC50 greater than 1 µM.

On Vitamin D3 receptor, `C=C1/C(=C\C=C\C2CCC3(C)C(CCC3C(C)CCCC(C)(C)O)C2)C[C@@H](C)C[C@@H]1C` (some centres not stated) [1,25(OH)2D3] showed a Ki of 0.0005 µM. Further, the IC50 was found to be 0.2 µM in test [1] and 0.04 µM in test [2].

Turning to `CC(C)(C)C(=O)COc1ccc(C(C)(C)c2ccc(OCC(=O)C(C)(C)C)c(Cl)c2)cc1Cl` [LG190090], the Ki at Vitamin D3 receptor was greater than 1 µM. This compound displayed an IC50 in test [1] greater than 1 µM.
